Measurements as given in ChEMBL document CHEMBL1133158, “Beta-carbonyl substituted glutathione conjugates as inhibitors Of O. volvulus GST2” (Bioorg Med Chem Lett, 2000).

How the values were obtained:
[1] = biological target: Glutathione S-transferase P (Homo sapiens, UniProt P09211); assay: Inhibitory activity against human Glutathione S-transferase P
[2] = Selectivity of compound for piGST to that of OvGST2

Chain of Glutathione S-transferase P (P09211 whole entry): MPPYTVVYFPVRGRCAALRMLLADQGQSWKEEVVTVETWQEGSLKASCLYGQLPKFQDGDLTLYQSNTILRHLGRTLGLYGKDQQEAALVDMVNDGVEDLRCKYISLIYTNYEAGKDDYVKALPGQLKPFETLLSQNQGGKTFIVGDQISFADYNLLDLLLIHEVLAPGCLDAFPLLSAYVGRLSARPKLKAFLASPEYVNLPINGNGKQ

CCC(=O)CC(C)SCC(NC(=O)CCC(N)C(=O)O)C(=O)NCC(=O)O (stereo unspecified)
IC50 [1]: 217 µM

NC(CCC(=O)NC(CSC1CCCC(=O)C1)C(=O)NCC(=O)O)C(=O)O (stereo unspecified)
IC50 [1]: > 250 µM | Selectivity [2]: > 1.1

CCCOC(=O)CC(SCC(NC(=O)CCC(N)C(=O)O)C(=O)NCC(=O)O)C(=O)OCCC (stereo unspecified)
IC50 [1]: > 250 µM

CCCCOC(=O)CC(SCC(NC(=O)CCC(N)C(=O)O)C(=O)NCC(=O)O)C(=O)O (stereo unspecified)
IC50 [1]: 40.3 µM | Selectivity [2]: 0.8

NC(CCC(=O)NC(CSC(CC(=O)O)C(=O)O)C(=O)NCC(=O)O)C(=O)O (stereo unspecified)
IC50 [1]: > 250 µM | Selectivity [2]: > 13.9

CCC(CC(C)=O)SCC(NC(=O)CCC(N)C(=O)O)C(=O)NCC(=O)O (stereo unspecified)
IC50 [1]: 5.2 µM

CC(C)C(=O)CC(SCC(NC(=O)CCC(N)C(=O)O)C(=O)NCC(=O)O)c1ccccc1 (stereo unspecified)
IC50 [1]: > 250 µM | Selectivity [2]: > 7.8

COC(=O)CC(SCC(NC(=O)CCC(N)C(=O)O)C(=O)NCC(=O)O)C(=O)OC (stereo unspecified)
IC50 [1]: 208 µM

CC(=O)CC(SCC(NC(=O)CCC(N)C(=O)O)C(=O)NCC(=O)O)C(C)C (stereo unspecified)
IC50 [1]: > 250 µM

CCCC(CC(C)=O)SCC(NC(=O)CCC(N)C(=O)O)C(=O)NCC(=O)O (stereo unspecified)
IC50 [1]: 8.1 µM | Selectivity [2]: 1.3

CC(=O)CC(SCC(NC(=O)CCC(N)C(=O)O)C(=O)NCC(=O)O)c1ccccc1 (stereo unspecified)
IC50 [1]: 155 µM
